Data as given in patent publication US9387204B2, “Fused bicyclic imidazoles” (BAYER INTELLECTUAL PROPERTY GmbH, priority 2007, dated 2016).

Tested on: A549 cells
Assay: Cellular proliferation/cytotoxicity assay (Alamar Blue), A549 cells
Conditions: Homo sapiens, A549, 72 h, read-out: Anti-proliferative/Cytotoxic activity (A549 cells)

Question: `Cc1ccn2c(-c3ccccc3)c(-c3ccc(CN4CCC(c5nnc(-c6ccccn6)[nH]5)CC4)cc3)nc2c1` [Example 50, 7-methyl-3-phenyl-2-[4-({4-[5-(pyridin-2-yl)-4H-1,2,4-triazol-3-yl]piperidin-1-yl}methyl)phenyl]imidazo[1,2-a]pyridine] was tested. Which IC50 did it give?
Answer: > 10 µM

Question: With `Cc1nn2c(-c3ccccc3)c(-c3ccc(CN4CCC(c5nnc(-c6ccccn6)[nH]5)CC4)cc3)nc2s1` [Example 45, 2-methyl-5-phenyl-6-[4-({4-[5-(pyridin-2-yl)-4H-1,2,4-triazol-3-yl]piperidin-1-yl}methyl)phenyl]imidazo[2,1-b][1,3,4]thiadiazole] as the compound, how does the IC50 read?
Answer: > 10 µM

Question: With `Fc1ccc2nc(-c3ccc(CN4CCC(c5n[nH]c(-c6ccccn6)n5)CC4)cc3)c(-c3ccccc3)n2c1` [Example 22, 6-fluoro-3-phenyl-2-(4-{[4-(5-pyridin-2-yl-1,2,4-triazol-3-yl)piperidin-1-yl]methyl}phenyl)imidazo[1,2-a]pyridine] as the compound, how does the IC50 read?
Answer: > 10 µM

Question: Which IC50 does the source give for `Fc1cccc(-c2c(-c3ccc(CN4CCC(c5n[nH]c(-c6ccccn6)n5)CC4)cc3)nc3ccccn23)c1` [Example 14, 3-(3-fluorophenyl)-2-(4-{[4-(5-pyridin-2-yl-1,2,4-triazol-3-yl)piperidin-1-yl]methyl}phenyl)imidazo[1,2-a]pyridine] here?
Answer: < 10 µM

Question: With `c1ccc(-c2nc(C3CCN(Cc4ccc(-c5nc6ncccn6c5-c5cccs5)cc4)CC3)n[nH]2)nc1` [Example 35, 2-(4-{[4-(5-pyridin-2-yl-1,2,4-triazol-3-yl)piperidin-1-yl]methyl}phenyl)-3-(2-thienyl)imidazo[1,2-a]pyrimidine] as the compound, how does the IC50 read?
Answer: > 10 µM

Question: `Cc1cccc(-c2nnc(C3CCN(Cc4ccc(-c5nc6ccc(C)nn6c5-c5ccccc5)cc4)CC3)[nH]2)n1` [Example 69, 6-methyl-2-[4-({4-[5-(6-methylpyridin-2-yl)-4H-1,2,4-triazol-3-yl]piperidin-1-yl}methyl)phenyl]-3-phenylimidazo[1,2-b]pyridazine] was tested. Which IC50 did it give?
Answer: < 10 µM

Question: How did the IC50 turn out when `c1ccc(-c2c(-c3ccc(CN4CCC(c5n[nH]c(-c6ccccn6)n5)CC4)cc3)nc3scnn23)cc1` [Example 11, 5-phenyl-6-(4-{[4-(5-pyridin-2-yl-1,2,4-triazol-3-yl)piperidin-1-yl]methyl}phenyl)imidazo[2,1-b][1,3,4]thiadiazole] was run?
Answer: < 10 µM

Question: `Cc1cccc(-c2nnc(C3CCN(Cc4ccc(-c5nc6ncccn6c5-c5ccccc5)cc4)CC3)[nH]2)n1` [Example 63, 2-[4-({4-[5-(6-methylpyridin-2-yl)-4H-1,2,4-triazol-3-yl]piperidin-1-yl}methyl)phenyl]-3-phenylimidazo[1,2-a]pyrimidine] was tested. Which IC50 did it give?
Answer: > 10 µM

Question: `c1ccc(-c2c(-c3ccc(CN4CCC(c5n[nH]c(-c6ccccn6)n5)CC4)cc3)nc3sccn23)cc1` [Example 10, 5-phenyl-6-(4-{[4-(5-pyridin-2-yl-1,2,4-triazol-3-yl)piperidin-1-yl]methyl}phenyl)imidazo[2,1-b][1,3]thiazole] was tested. Which IC50 did it give?
Answer: < 10 µM

Question: `N#Cc1ccn2c(-c3ccccc3)c(-c3ccc(CN4CCC(c5nnc(-c6ncccn6)[nH]5)CC4)cc3)nc2c1` [Example 78, 3-phenyl-2-[4-({4-[5-(pyrimidin-2-yl)-4H-1,2,4-triazol-3-yl]piperidin-1-yl}methyl)phenyl]imidazo[1,2-a]pyridine-7-carbonitrile] was tested. Which IC50 did it give?
Answer: < 10 µM

Same assay, conditions: read-out: Anti-proliferative/Cytotoxic activity (A549 cells); A549 cells, 72 h, Alamar Blue (Resazurin)

Question: For `N#Cc1ccn2c(-c3ccccc3)c(-c3ccc(CN4CCC(c5nnc(-c6ccccn6)[nH]5)CC4)cc3)nc2c1` [Example 114, ′3-phenyl-2-(4-{[4-(5-pyridin-2-yl-4H-1,2,4-triazol-3-yl)piperidin-1-yl]methyl}phenyl)imidazo[1,2-a]pyridine-7-carbonitrile], which IC50 is on record?
Answer: < 10 µM

Question: For `N#Cc1ccn2c(-c3ccccc3)c(-c3ccc(CN4CCC(c5nnc(-c6ccc[nH]6)[nH]5)CC4)cc3)nc2c1` [Example 110, ′3-phenyl-2-[4-({4-[5-(1H-pyrrol-2-yl)-4H-1,2,4-triazol-3-yl]piperidin-1-yl}methyl)phenyl]imidazo[1,2-a]pyridine-7-carbonitrile], which IC50 is on record?
Answer: < 10 µM

Question: With `N#Cc1cccn2c(-c3ccccc3)c(-c3ccc(CN4CCC(c5nnc(-c6nccs6)[nH]5)CC4)cc3)nc12` [Example 86, ′3-phenyl-2-[4-({4-[5-(1,3-thiazol-2-yl)-4H-1,2,4-triazol-3-yl]piperidin-1-yl}methyl)phenyl]imidazo[1,2-a]pyridine-8-carbonitrile] as the compound, how does the IC50 read?
Answer: > 10 µM

Question: With `N#Cc1ccn2c(-c3ccccc3)c(-c3ccc(CN4CCC(c5nnc(-c6nccs6)[nH]5)CC4)cc3)nc2c1` [Example 89, ′3-phenyl-2-[4-({4-[5-(1,3-thiazol-2-yl)-4H-1,2,4-triazol-3-yl]piperidin-1-yl}methyl)phenyl]imidazo[1,2-a]pyridine-7-carbonitrile] as the compound, how does the IC50 read?
Answer: < 10 µM

Question: How did the IC50 turn out when `c1ccc(-c2c(-c3ccc(CN4CCC(c5nnc(-c6ccco6)[nH]5)CC4)cc3)nc3scnn23)cc1` [Example 94, ′6-[4-({4-[5-(2-furyl)-4H-1,2,4-triazol-3-yl]piperidin-1-yl}methyl)phenyl]-5-phenylimidazo[2,1-b][1,3,4]thiadiazole] was run?
Answer: < 10 µM

Question: `c1ccc(-c2c(-c3ccc(CN4CCC(c5nnc(-c6cccs6)[nH]5)CC4)cc3)nc3sccn23)cc1` [Example 100, ′5-phenyl-6-[4-({4-[5-(2-thienyl)-4H-1,2,4-triazol-3-yl]piperidin-1-yl}methyl)phenyl]imidazo[2,1-b][1,3]thiazole] was tested. Which IC50 did it give?
Answer: < 10 µM

Question: With `Cc1ccc(-c2nnc(C3CCN(Cc4ccc(-c5nc6scnn6c5-c5ccccc5)cc4)CC3)[nH]2)nc1` [Example 74, ′6-[4-({4-[5-(5-methylpyridin-2-yl)-4H-1,2,4-triazol-3-yl]piperidin-1-yl}methyl)phenyl]-5-phenylimidazo[2,1-b][1,3,4]thiadiazole] as the compound, how does the IC50 read?
Answer: < 10 µM

Question: For `Cc1ccc(-c2nnc(C3CCN(Cc4ccc(-c5nc6ncccn6c5-c5ccccc5)cc4)CC3)[nH]2)nc1` [Example 70, ′2-[4-({4-[5-(5-methylpyridin-2-yl)-4H-1,2,4-triazol-3-yl]piperidin-1-yl}methyl)phenyl]-3-phenylimidazo[1,2-a]pyrimidine], which IC50 is on record?
Answer: < 10 µM

Question: For `Clc1ccc(-c2nnc(C3CCN(Cc4ccc(-c5nc6ncccn6c5-c5ccccc5)cc4)CC3)[nH]2)nc1` [Example 76, ′2-[4-({4-[5-(5-chloropyridin-2-yl)-4H-1,2,4-triazol-3-yl]piperidin-1-yl}methyl)phenyl]-3-phenylimidazo[1,2-a]pyrimidine], which IC50 is on record?
Answer: < 10 µM

Question: `c1ccc(-c2c(-c3ccc(CN4CCC(c5nnc(-c6cccs6)[nH]5)CC4)cc3)nc3ccccn23)cc1` [Example 97, ′3-phenyl-2-[4-({4-[5-(2-thienyl)-4H-1,2,4-triazol-3-yl]piperidin-1-yl}methyl)phenyl]imidazo[1,2-a]pyridine] was tested. Which IC50 did it give?
Answer: < 10 µM

Question: `N#Cc1cccn2c(-c3ccccc3)c(-c3ccc(CN4CCC(c5nnc(-c6ccco6)[nH]5)CC4)cc3)nc12` [Example 90, ′2-[4-({4-[5-(2-furyl)-4H-1,2,4-triazol-3-yl]piperidin-1-yl}methyl)phenyl]-3-phenylimidazo[1,2-a]pyridine-8-carbonitrile] was tested. Which IC50 did it give?
Answer: > 10 µM

Question: Which IC50 does the source give for `c1ccc(-c2c(-c3ccc(CN4CCC(c5n[nH]c(-c6nccs6)n5)CC4)cc3)nc3scnn23)cc1` [Example 88, ′5-phenyl-6-[4-({4-[5-(1,3-thiazol-2-yl)-1H-1,2,4-triazol-3-yl]piperidin-1-yl}methyl)phenyl]imidazo[2,1-b][1,3,4]thiadiazole] here?
Answer: < 10 µM
